Literature values in Sander's compilation of Henry's law constants.

Assay: Henry solubility constant Hcp at 298.15 K (mol/(m3 Pa))
Details: cited value
[1] = reference: Burkholder et al. (2015)
[2] = reference: Burkholder et al. (2019)
[3] = reference: Fogg and Sangster (2003)
[4] = reference: Sander et al. (2006)
[5] = reference: Sander et al. (2011)
[6] = reference: Mackay et al. (1992b)

For `Cc1ccc(Cl)cc1Cl` [2,4-dichloro-1-methylbenzene], which “Henry solubility constant Hcp” value (reference: Brockbank (2013)) is on record?
The value was 0.0027.

For `Oc1ccc(Cl)cc1Cl` [2,4-dichlorophenol], which “Henry solubility constant Hcp” value (reference: Goldstein (1982)) is on record?
Its value is 1.5.

Which “Henry solubility constant Hcp” value (reference: Brockbank (2013)) does the source give for `CC(C)C(=O)C(C)C` [2,4-dimethyl-3-pentanone] here?
The value was 0.023.

For `Cc1ccc(N)c(C)c1` [2,4-dimethylbenzenamine], which “Henry solubility constant Hcp” value (reference: Brockbank (2013)) is on record?
The value was 2.8.

For `CC(C)CC(C)C` [2,4-dimethylpentane], which “Henry solubility constant Hcp” value (reference: Brockbank (2013)) is on record?
Its value is 2.9e-06.

With `CC(C)CCC(C)C` [2,5-dimethylhexane] as the compound, how does the “Henry solubility constant Hcp” value (reference: Brockbank (2013)) read?
Its value is 3.1e-06.

Which “Henry solubility constant Hcp” value (reference: Barcelo and Hennion (1997)) does the source give for `N#Cc1c(Cl)cccc1Cl` [2,6-dichlorobenzenenitrile] here?
The value was 0.015.

Which “Henry solubility constant Hcp” value (reference: Brockbank (2013)) does the source give for `CC(C)CC(=O)CC(C)C` [2,6-dimethyl-4-heptanone] here?
Its value is 0.013.

With `Cc1cccc(C)n1` [2,6-dimethylpyridine] as the compound, how does the “Henry solubility constant Hcp” value (reference: Brockbank (2013)) read?
Its value is 0.92.

For `CCC(C)Br` (stereo not given) [2-bromobutane], which “Henry solubility constant Hcp” value (reference: Brockbank (2013)) is on record?
The value was 0.00088.

With `CC(C)Br` [2-bromopropane] as the compound, how does the “Henry solubility constant Hcp” value (reference: Brockbank (2013)) read?
The value was 0.0009.

For `CCC(C)O` (stereo not given) [2-butanol], which “Henry solubility constant Hcp” value (reference: Brockbank (2013)) is on record?
Its value is 0.95.

And the “Henry solubility constant Hcp” value [1]?
Its value is 1.1.

What about the “Henry solubility constant Hcp” value [2] of the same compound?
The value was 1.1.

And the “Henry solubility constant Hcp” value [3]?
Its value is 1.

What about the “Henry solubility constant Hcp” value [4] of the same compound?
Its value is 1.1.

What about the “Henry solubility constant Hcp” value [5] of the same compound?
The value was 1.1.

With `CCCCOCCOC(C)=O` [2-butoxyethyl ethanoate] as the compound, how does the “Henry solubility constant Hcp” value (reference: Brockbank (2013)) read?
Its value is 1.8.

Which “Henry solubility constant Hcp” value (reference: Brockbank (2013)) does the source give for `CCC(C)OC(C)=O` (stereo not given) [2-butyl ethanoate] here?
The value was 0.023.

With `FC(F)OC(F)(F)C(F)Cl` (stereo not given) [2-chloro-1,1,2-trifluoroethyl difluoromethyl ether] as the compound, how does the “Henry solubility constant Hcp” value [3] read?
Its value is 0.0003.

With `CCC(C)Cl` (stereo not given) [2-chlorobutane] as the compound, how does the “Henry solubility constant Hcp” value (reference: Brockbank (2013)) read?
The value was 0.00041.

With `Clc1ccc2ccccc2c1` [2-chloronaphthalene] as the compound, how does the “Henry solubility constant Hcp” value (reference: Goldstein (1982)) read?
The value was 0.016.

Which “Henry solubility constant Hcp” value (reference: Brockbank (2013)) does the source give for `CC(C)Cl` [2-chloropropane] here?
The value was 0.00057.

With `CCOC(C)(C)CC` [2-ethoxy-2-methylbutane] as the compound, how does the “Henry solubility constant Hcp” value (reference: Brockbank (2013)) read?
Its value is 0.005.

With `CCOCCOC(C)=O` [2-ethoxyethyl ethanoate] as the compound, how does the “Henry solubility constant Hcp” value (reference: Brockbank (2013)) read?
Its value is 3.

Which “Henry solubility constant Hcp” value (reference: Brockbank (2013)) does the source give for `CCC/C=C(/C=O)CC` [2-ethyl-2-hexenal] here?
Its value is 0.052.

For `CCc1ccccc1N` [2-ethylaniline], which “Henry solubility constant Hcp” value (reference: Brockbank (2013)) is on record?
Its value is 2.6.

With `CCCCC(C=O)CC` (stereo not given) [2-ethylhexanal] as the compound, how does the “Henry solubility constant Hcp” value (reference: Brockbank (2013)) read?
Its value is 0.012.

Which “Henry solubility constant Hcp” value [6] does the source give for `CCc1ccc2ccccc2c1` [2-ethylnaphthalene] here?
Its value is 0.013.

Which “Henry solubility constant Hcp” value (reference: Brockbank (2013)) does the source give for `CCCCCC(C)O` (stereo not given) [2-heptanol] here?
Its value is 0.33.

Which “Henry solubility constant Hcp” value (reference: Brockbank (2013)) does the source give for `CCCCCC(C)=O` [2-heptanone] here?
Its value is 0.068.

For `CCCCC(C)O` (stereo not given) [2-hexanol], which “Henry solubility constant Hcp” value (reference: Brockbank (2013)) is on record?
The value was 0.39.

Which “Henry solubility constant Hcp” value (reference: Brockbank (2013)) does the source give for `CCCCC(C)=O` [2-hexanone] here?
The value was 0.11.

And the “Henry solubility constant Hcp” value (reference: Howard (1993))?
Its value is 0.1.

With `COC(=O)c1ccccc1O` [2-hydroxybenzoic acid methyl ester] as the compound, how does the “Henry solubility constant Hcp” value (reference: Brockbank (2013)) read?
Its value is 1.6.

What does the source list for `Oc1ccccc1Cl` [2-hydroxychlorobenzene]?
Henry solubility constant Hcp (reference: Goldstein (1982)): 1.2; Henry solubility constant Hcp (reference: Howard (1989)): 18

With `CC(C)I` [2-iodopropane] as the compound, how does the “Henry solubility constant Hcp” value (reference: Brockbank (2013)) read?
Its value is 0.00085.

For `CCC(C)(C)OC` [2-methoxy-2-methylbutane], which “Henry solubility constant Hcp” value (reference: Brockbank (2013)) is on record?
The value was 0.0097.

With `CCC(C)CO` (stereo not given) [2-methyl-1-butanol] as the compound, how does the “Henry solubility constant Hcp” value (reference: Brockbank (2013)) read?
The value was 0.76.

For `CC(C)CO` [2-methyl-1-propanol], which “Henry solubility constant Hcp” value (reference: Brockbank (2013)) is on record?
Its value is 0.8.

What about the “Henry solubility constant Hcp” value [1] of the same compound?
The value was 0.83.

And the “Henry solubility constant Hcp” value [2]?
The value was 0.83.

What about the “Henry solubility constant Hcp” value [4] of the same compound?
The value was 1.

And the “Henry solubility constant Hcp” value [5]?
The value was 1.

With `CCC(C)(C)O` [2-methyl-2-butanol] as the compound, how does the “Henry solubility constant Hcp” value (reference: Brockbank (2013)) read?
The value was 0.65.

With `CC=C(C)C` [2-methyl-2-butene] as the compound, how does the “Henry solubility constant Hcp” value (reference: Brockbank (2013)) read?
The value was 5.7e-05.

For `Cc1ccccc1N` [2-methylbenzenamine], which “Henry solubility constant Hcp” value (reference: Brockbank (2013)) is on record?
Its value is 4.8.

With `CCC(C)C=O` (stereo not given) [2-methylbutanal] as the compound, how does the “Henry solubility constant Hcp” value (reference: Brockbank (2013)) read?
Its value is 0.025.

With `CCCCC(C)C` [2-methylhexane] as the compound, how does the “Henry solubility constant Hcp” value (reference: Brockbank (2013)) read?
The value was 2.9e-06.

With `Cc1ccc2ccccc2c1` [2-methylnaphthalene] as the compound, how does the “Henry solubility constant Hcp” value (reference: Brockbank (2013)) read?
The value was 0.02.

And the “Henry solubility constant Hcp” value [3]?
Its value is 0.018.

What about the “Henry solubility constant Hcp” value [6] of the same compound?
Its value is 0.02.

Which “Henry solubility constant Hcp” value (reference: Brockbank (2013)) does the source give for `CCCC(C)C` [2-methylpentane] here?
The value was 6.4e-06.

For `CC(C)C` [2-methylpropane], which “Henry solubility constant Hcp” value [1] is on record?
Its value is 9.1e-06.

What about the “Henry solubility constant Hcp” value [2] of the same compound?
Its value is 9.1e-06.

What about the “Henry solubility constant Hcp” value (reference: Hayduk (1986)) of the same compound?
The value was 9.1e-06.

And the “Henry solubility constant Hcp” value [4]?
The value was 9.1e-06.

What about the “Henry solubility constant Hcp” value [5] of the same compound?
Its value is 9.1e-06.

With `CC(C)C#N` [2-methylpropanenitrile] as the compound, how does the “Henry solubility constant Hcp” value (reference: Brockbank (2013)) read?
Its value is 0.11.

And the “Henry solubility constant Hcp” value (reference: Plyasunov et al. (2006))?
The value was 0.1.

With `CC(C)COC(=O)C(C)C` [2-methylpropyl 2-methylpropanoate] as the compound, how does the “Henry solubility constant Hcp” value (reference: Brockbank (2013)) read?
The value was 0.0074.

With `CC(=O)OCC(C)C` [2-methylpropyl ethanoate] as the compound, how does the “Henry solubility constant Hcp” value (reference: Brockbank (2013)) read?
Its value is 0.026.

Which “Henry solubility constant Hcp” value (reference: Brockbank (2013)) does the source give for `Cc1ccccn1` [2-methylpyridine] here?
The value was 0.98.

Which “Henry solubility constant Hcp” value (reference: Brockbank (2013)) does the source give for `Cc1cccs1` [2-methylthiophene] here?
The value was 0.0041.
